Experimental data published in US20250090557A1 (priority 2020, published 2025).

Columns and labels:
Vero cells = conditions: uninfected Vero cultures, 10-1000 nM
SARS-CoV-2 [1] = assay type: cell-based
[2] = Toxicity and mutagenicity in mice; conditions: mouse, in vivo
cleaved caspase 3 = assay type: cell-based, human
[3] = test system: mitochondrial reactive oxygen species (mito-ROS); assay type: cell-based, human
IL-6 = assay type: cell-based, human
IFN-β and IFN-λ = assay type: cell-based, human
SARS-CoV-2 [4] = experiment: SARS-CoV-2 infection of K18-hACE2 transgenic mice, lung viral titer; assay type: in vivo, mouse; conditions: 4 mg/kg per day intraperitoneally, 72 h post infection
Experimental: K18-hACE2 transgenic mice were infected with SARS-CoV-2 (10,000 PFU per mouse) intranasally and treated with Mito-MES (4 mg/kg per day intraperitoneally) (n=10) vs vehicle control (Ctrl) (saline 1% DMSO) (n=5 mice). Five mice (n=5) were treated with Mito-MES for 48 h before SARS-COV-2 infection and throughout the infection for 3 days (5 days in total) until mice were sacrificed 72 h post infection. Five mice (n=5) were treated with Mito-MES 8 h after the infection for 3 days (3 days in total) until mice were sacrificed 72 h post infection. The left lung was harvested from all mice, tissue was homogenized in mechanical dissociator and the supernatant was cryopreserved until it was used for viral titer. Viral titer was determined by two independent methods based on cytopathic effect (CPE) effect in Vero-E6 cells and based on an ELISA immunoassay that detected the presence of SARS-CoV-2 Spike S protein in Vero-E6 cells infected with lung supernatants from infected mice. FIG. 7-a summarizes the results of the viral replication by TCID50-assay based on CPE method. FIG. 7-b summarizes the results of the viral replication by TCID50-assay based on ELISA assay. Bars indicate mean±s.e.m.
The in vivo antiviral activity of Mito-MES was evaluated in mice. […] Specifically, K18-hACE2 transgenic mice, which express human ACE2, were infected with SARS-CoV-2.

COC1=C(OC)C(=O)C(CCCCCCCCCC[P+](c2ccccc2)(c2ccccc2)c2ccccc2)=C(C)C1=O.CS(=O)(=O)[O-] [Mito-MES, 10-(4,5-dimethoxy-2-methyl-3,6-dioxo-1,4-cyclohexadienyl) decyl triphenylphosphonium methanesulfonate]
cytotoxicity (XTT assay) (Vero cells): no observed cytotoxicity | antiviral activity by immunofluorescence (spike S protein) (SARS-CoV-2 [1]): modest antiviral activity | viral genomic RNA in cell lysates (qPCR) (SARS-CoV-2 [1]; Vero cells): confirmed by qPCR | percent of infected cells positive for N protein and Spike S protein (flow cytometry) (SARS-CoV-2 [1]; Vero cells, viable single cells): reduced the percent of infected cells | antiviral activity relative to positive control remdesivir (TCID50) (SARS-CoV-2 [1]; Vero cells, vs 5 μM remdesivir): modest compared to 5 μM remdesivir | human equivalent dose relative to the doses administered to A1 and A2 (20 mg/day) [2]: about 60 fold | percent of infected cells positive for cleaved caspase 3 and MFI per cell (flow cytometry) (cleaved caspase 3; Calu3, 100 nM): inhibits or reduces SARS-CoV-2-induced increase | SARS-CoV-2-induced cleavage of caspase 3 (immunofluorescence) (cleaved caspase 3; Calu3, 10-1000 nM): reduced by Mito-MES treatment | mito-ROS generation (MitoSOX Red MFI and percent positive cells) [3]: reduced mito-ROS generation | secretion of IL-6 resulting from SARS-CoV-2 infection (ELISA) (IL-6): attenuated the increase in secretion of IL-6 | total cellular IFN-β and IFN-λ protein levels (ELISA, lysates) (IFN-β and IFN-λ; infected Calu3, 100-1000 nM): independently confirmed | secretion of IFN-β and IFN-λ (ELISA, supernatants) (IFN-β and IFN-λ; infected Calu3, 48 h post infection, 100-1000 nM): did not | lung viral titers (TCID50 by CPE and ELISA) compared to vehicle (SARS-CoV-2 [4]): viral titers were lower
